Measurements as given in PMC8067507, “Aryl Urea Based Scaffolds for Multitarget Drug Discovery in Anticancer Immunotherapies” (Pharmaceuticals, 2021).

How the values were obtained:
[1] = test system: A549 (pulmonary adenocarcinoma); assay: Cell proliferation assay (MTT); format: cell-based; conditions: Homo sapiens, A549, 48 h, 2 days incubation, average ± SD of three experiments
Text: (§1) The ability of Ureas 13–33 to inhibit cell proliferation was established by means of their IC50 values towards the human tumor cell lines HT-29 (colon adenocarcinoma), MCF-7 (breast adenocarcinoma), HeLa (epithelioid cervix carcinoma) and A549 (pulmonary adenocarcinoma), as well as towards the endothelial cell line HMEC-1 (human microvascular endothelial cells) and the non-tumor cell line HEK-293 (human embryonic kidney cells).
(§2) HT-29, MCF-7, HeLa, A549 and HEK-293 cell lines were maintained in Dulbecco’s modified Eagle’s medium (DMEM) containing glucose (1 g/L), glutamine (2 mM), penicillin (50 μg/mL), streptomycin (50 μg/mL), and amphotericin B (1.25 μg/mL), supplemented with 10% FBS. HMEC-1 cell line was maintained in Dulbecco’s modified Eagle’s medium (DMEM)/low glucose containing glutamine (2 mM), penicillin (50 μg/mL), streptomycin (50 μg/mL), and amphotericin B (1.25 μg/mL), supplemented with 10% FBS. For the development of tube formation assays in Matrigel, HMEC-1 cells were cultured in EGM-2MV Medium supplemented with EGM-2MV SingleQuots.
(§3) In 96-well plates, 3 × 10^3 (HeLa, A549, HMEC-1, HEK-293) or 5 × 10^3 (HT-29, MCF-7) cells per well were incubated with serial dilutions of the tested compounds in a total volume of 100 μL of their respective growth media. The 3-(4,5-dimethylthiazol-2-yl)-2,5-diphenyltetrazolium bromide (MTT; Sigma Chemical Co.) dye reduction assay in 96-well microplates was used. After 2 days of incubation (37 °C, 5% CO2 in a humid atmosphere), 10 μL of MTT (5 mg/mL in phosphate-buffered saline, PBS) was added to each well, and the plate was incubated for a further 3 h (37 °C). After that, the supernatant was discarded and replaced by 100 µL of DMSO to dissolve formazan crystals. The absorbance was then read at 540 nm by spectrophotometry. For all concentrations of compound, cell viability was expressed as the percentage of the ratio between the mean absorbance of treated cells and the mean absorbance of untreated cells. Three independent experiments were performed, and the IC50 values (i.e., concentration half inhibiting cell proliferation) were graphically determined using GraphPad Prism 4 software.

[2] = test system: HMEC-1 (human microvascular endothelial cells); assay: Cell proliferation assay (MTT); format: cell-based; conditions: HMEC-1, 48 h, 2 days incubation, average ± SD of three experiments
Text: as §1, §2, §3

[3] = test system: c-Myc; assay: c-Myc quantification by flow cytometry in HT-29; format: cell-based, human; conditions: HT-29, 10 μM, 24 h, referred to control (DMSO)
Procedure: (§4) We evaluated the effect of the selected compounds on PD-L1 and on c-Myc proteins by flow cytometry after 24 h treatment at 10 μM concentration of compounds. Both, PD-L1 and c-Myc were relatively determined using DMSO treated cells as a negative control and BMS-8 as a positive one.
(§5) For the detection of total PD-L1 and c-Myc, cancer cells were seeded (3 × 10^5 cells/well) in 6-well plates and were incubated with the corresponding compounds for 24 h. Then they were collected, fixed, treated with 0.5% Triton^TM X-100 and stained with Alexa Fluor® 647 Rabbit monoclonal Anti-PD-L1 (ab215251) and FITC Rabbit monoclonal anti-c-Myc (ab223913).
(§6) We also checked results performing ELISA tests. For ELISA tests, lysates were collected, protein quantification was carried out by Bradford test and, then, PD-L1 and c-Myc were quantified using Human PD-L1 ELISA Kit 28-8 (ab214565) and c-Myc (Total) Human ELISA Kit (KHO2041), respectively, according to the manufacturer’s instructions.

[4] = test system: c-Myc; assay: c-Myc quantification by flow cytometry in A-549; format: cell-based, human; conditions: A-549, 10 μM, 24 h, referred to control (DMSO)
Procedure: as §4, §5, §6

[5] = test system: HT-29 cells; assay: Cell proliferation evaluation in co-cultures: HT-29 with Jurkat T cells; format: cell-based, human; conditions: 24 h
Procedure: We also studied the effect of Compounds 16, 23, 26 and 33 on tumor cell proliferation in the presence of PD-1 expressing Jurkat T-cells. For this assay, first interferon γ stimulated HT-29 cells were treated for 24 h with the selected compounds at 10 µM in presence of Jurkat T cells. Then, living cells were counted using trypan blue and a Neubauer chamber and by flow cytometry.
(§7) In 12-well plates, 10^5 HT-29 cells per well were seeded and incubated for 24 h with cell culture medium supplemented with IFN-γ (10 ng/mL; human, Invitrogen®) then medium was change by one containing 4 × 10^5 Jurkat T cells per well and 10 μM of the corresponding compound or DMSO for the control. After 24 h of incubation, supernatants were collected to determine Jurkat T cell living cells and, on the other hand, HT-29 cells were collected with trypsin. Both types of suspension cells were counted with the Neubauer chamber and trypan blue and also by flow cytometry.

[6] = test system: Jurkat T cells; assay: Jurkat T cell proliferation and population distribution in co-cultures with HT-29; format: cell-based, human; conditions: co-cultured with HT-29, 10 μM, 24 h
Text: We also determine Jurkat T cell proliferation in those co-cultures from the corresponding media by flow cytometry. […] All samples provided similar population distribution except by those treated with Compound 16, in which an enhancement of size and complexity is observed.
Data provided in Figure 7 show the density of living Jurkat T cells in the treated co-cultures with HT-29. The graphics include cell distribution population by size and complexity in each case.
as §7

[7] = target: T1, VEGFR-2 (Homo sapiens, UniProt P35968); assay: VEGFR-2 quantification by flow cytometry in HMEC-1; format: cell-based; parameters: Both membrane and total VEGFR-2 were relatively determined using dimethyl sulfoxide (DMSO) treated cells as a negative control; endogenous in cells; host or cells: HMEC-1 (human microvascular endothelial cells); conditions: 10 µM, 24 h, relative to DMSO control
Procedure: (§8) We performed the study on both a HT-29 cancer cell line and a human microvessel endothelial cell line (HMEC-1). […] The effect of these selected derivatives on VEGFR-2, on HT-29 tumor cell line and on human microvessel endothelial cells (HMEC) was determined by flow cytometry technique. […] For these assays, cells were incubated for 24 h in the presence of the corresponding compounds at 10 µM concentration.

[8] = target: T1, VEGFR-2; assay: VEGFR-2 quantification by flow cytometry in HT-29; format: cell-based; parameters: Both membrane and total VEGFR-2 were relatively determined using dimethyl sulfoxide (DMSO) treated cells as a negative control; endogenous in cells; host or cells: HT-29 (colon adenocarcinoma) and HMEC-1 (human microvascular endothelial cells); conditions: 24 h
Procedure: as §8

[9] = HT-29, 10 µM, relative to DMSO control

T1 sequence (P35968 20-1356): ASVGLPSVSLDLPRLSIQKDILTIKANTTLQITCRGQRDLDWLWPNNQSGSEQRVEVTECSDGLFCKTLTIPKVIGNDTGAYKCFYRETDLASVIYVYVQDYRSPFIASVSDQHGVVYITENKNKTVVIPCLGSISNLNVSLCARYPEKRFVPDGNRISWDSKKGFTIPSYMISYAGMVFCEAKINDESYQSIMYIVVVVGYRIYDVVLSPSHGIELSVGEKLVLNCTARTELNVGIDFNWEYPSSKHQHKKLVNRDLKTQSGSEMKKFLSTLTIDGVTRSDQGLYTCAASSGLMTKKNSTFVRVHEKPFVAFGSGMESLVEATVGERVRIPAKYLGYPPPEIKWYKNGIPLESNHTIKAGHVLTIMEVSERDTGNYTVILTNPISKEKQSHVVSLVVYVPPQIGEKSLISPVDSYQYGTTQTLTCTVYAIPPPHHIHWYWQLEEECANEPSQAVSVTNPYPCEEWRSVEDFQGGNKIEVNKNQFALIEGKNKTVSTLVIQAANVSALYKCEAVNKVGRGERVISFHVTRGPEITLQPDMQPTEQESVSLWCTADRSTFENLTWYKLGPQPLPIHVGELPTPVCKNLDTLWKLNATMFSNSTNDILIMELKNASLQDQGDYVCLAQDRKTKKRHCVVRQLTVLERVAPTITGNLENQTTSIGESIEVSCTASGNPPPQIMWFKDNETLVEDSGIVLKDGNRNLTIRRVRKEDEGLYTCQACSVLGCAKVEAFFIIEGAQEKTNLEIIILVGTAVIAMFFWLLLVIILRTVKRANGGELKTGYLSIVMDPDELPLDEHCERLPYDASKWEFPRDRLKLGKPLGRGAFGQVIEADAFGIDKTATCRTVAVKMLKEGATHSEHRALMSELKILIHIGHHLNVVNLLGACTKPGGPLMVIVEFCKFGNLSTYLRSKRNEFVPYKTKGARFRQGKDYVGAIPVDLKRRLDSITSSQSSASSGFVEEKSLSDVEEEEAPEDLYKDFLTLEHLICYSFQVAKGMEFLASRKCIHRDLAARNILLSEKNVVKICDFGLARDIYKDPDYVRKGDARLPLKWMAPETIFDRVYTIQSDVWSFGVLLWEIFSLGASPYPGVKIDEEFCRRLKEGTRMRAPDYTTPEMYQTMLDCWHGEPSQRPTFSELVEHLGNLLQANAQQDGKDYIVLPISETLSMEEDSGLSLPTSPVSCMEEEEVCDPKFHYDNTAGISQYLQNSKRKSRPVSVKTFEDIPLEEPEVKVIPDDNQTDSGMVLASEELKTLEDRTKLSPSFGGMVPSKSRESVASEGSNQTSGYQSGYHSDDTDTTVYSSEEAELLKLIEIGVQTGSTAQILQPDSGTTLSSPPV

COc1ccc(/C=C\c2cccc(NC(=O)Nc3ccc(Br)cc3)c2)cc1 [Compound 16]
IC50 [1]: 12 ± 2 µM
IC50 [2]: 27 ± 8 µM
c-Myc (%) relative expression [3]: 41 ± 10%
c-Myc (%) relative expression [4]: 29 ± 5%
inhibition at 10 µM ([5]; Homo sapiens, HT-29, co-cultured with Jurkat T-cells): ~90%
Living HT-29 cell proliferation (%) ([5]; IFN-γ stimulated HT-29 co-cultured with Jurkat T cells, 10 µM, five experiments): 9%
effect on Jurkat T cell proliferation [6]: hardly affect proliferation of T cell
effect on T cell size and complexity (morphology) [6]: an increase on their size and complexity
Membrane VEGFR-2 (%) [7]: 45 ± 8%
Total VEGFR-2 (%) [7]: 59 ± 5%
inhibition at 10 µM ([8]; 10 µM, statement for HT-29 and HMEC-1, read-out: inhibition of both membrane and total VEGFR-2): > 50%
Membrane VEGFR-2 (%) [8, 9]: 39 ± 9%
Total VEGFR-2 (%) [8, 9]: 55 ± 10%
